For one series, the system named is Spleen B (LPS). Put plainly: Mitogen-induced lymphocyte proliferation, Spleen B. It counts as cell-based. To be noted: Mus musculus, B-cell, 64 h, 48 h + 16 h with tritium thymidine, read-out: ED50 (concentration at which a 50% inhibition occurs). As to the method:
(§1) The cell culture in vitro proliferation test was used as an activity test for chemotherapeutics.
(§2) Clicks/RPMI 1640 medium (50:50) containing L-glutamine without any NaHCO3, in the form of powder for 10 1 (Seromed, Biochrom, Berlin, FRG) is dissolved in 9 l of double-distilled water, and sterile filtered into 900 ml bottles.
(§3) 900 ml of base medium are buffered using 9.5 ml of 7.5% strength sodium hydrogencarbonate solution and 5 ml of HEPES (N-2-hydroxyethyl-piperazine-N-2 ethanesulfonic acid) (Gibco, Eggenstein, FRG).
(§4) 900 ml of base medium plus 19 ml of NaHCO3 solution (7.5%; 10 ml of HEPES solution and 10 ml of L-glutamine solution (200 mM)).
(§5) Medium for mitogen-induced lymphocyte proliferation. Working medium containing 1% heat-inactivated (30 min, 56° C.) fetal calf serum (FCS) is prepared.
(§6) The mice are sacrificed by cervical dislocation and the spleens are removed under sterile conditions. The spleens are shredded on a sterile sieve having a mesh width of 80 "mesh" and are carefully transferred to a Petri dish containing working medium using the plunger of a plastic syringe (10 ml). […]
(§7) The group with mitogen additions and without preparation were defined as positive controls. […] The amount of radioactivity incorporated by these cells is measured in a beta counter (Packard, Tricarb 460c).

In series [1] the test system is A20 2J mouse B cell tumor (BALB/c). The experiment in a line: Cell proliferation test, A20 2J. To be noted: 72 h, read-out: ED50 (concentration at which a 50% inhibition occurs). It counts as cell-based. As to the method: as §1, §2, §3, §4
(§8) For keeping the tumor cells and hybridoma cells, working medium containing 5% FCS is prepared. […]
(§9) The proliferation test was carried out in round bottom microtiter plates. […] In all tests, the values were determined four times. […] The value of the negative control was subtracted from all values determined and the difference of positive control minus negative control was set at 100%.
(§10) The plates were incubated at 37° C./5% CO2 for 72 h and the proliferation rate was determined correspondingly as with the mitogen-induced lymphocyte proliferation. […]

Series [2] deals with WEHI 279 mouse B cell lymphoma. The experiment in a line: Cell proliferation test, WEHI 279. It counts as cell-based. The following applies: 72 h, read-out: ED50 (concentration at which a 50% inhibition occurs). The procedure: as §1, §2, §3, §4, §8, §9, §10
Series [3] relates to 7TD1 mouse B cell hybridoma (IL-6). The experiment in a line: Cell proliferation test, 7TD1. Type of series: cell-based. The following applies: 72 h, read-out: ED50 (concentration at which a 50% inhibition occurs). The procedure:
as §1, §2, §3, §4, §8, §9, §10

Series [4] concerns KB human epidermoid carcinoma. Put plainly: Cell proliferation test, KB. Type of series: cell-based. To be noted: 72 h, read-out: ED50 (concentration at which a 50% inhibition occurs). The procedure:
as §1, §2, §3, §4, §8, §9, §10

The subject of series [5] is TRK 4 mouse B cell hybridoma. Put plainly: Cell proliferation test, TRK 4. Type of series: cell-based. The following applies: 72 h, read-out: ED50 (concentration at which a 50% inhibition occurs). As to the method: as §1, §2, §3, §4, §8, §9, §10
Series [6] deals with A431 human epidermoid carcinoma. Put plainly: Cell proliferation test, A431. To be noted: A-431, 72 h, read-out: ED50 (concentration at which a 50% inhibition occurs). It counts as cell-based. As to the method: as §1, §2, §3, §4, §8, §9, §10
Series [7] concerns Cl 9/4 mouse T cell line (IL-4 dep.). The experiment in a line: Cell proliferation test, Cl 9/4. Type of series: cell-based. The following applies: 72 h, read-out: ED50 (concentration at which a 50% inhibition occurs). The procedure: as §1, §2, §3, §4, §8, §9, §10
The subject of series [8] is CTLL mouse T cell line (Tc clone IL-2). Put plainly: Cell proliferation test, CTLL. It counts as cell-based. To be noted: 72 h, read-out: ED50 (concentration at which a 50% inhibition occurs). As to the method: as §1, §2, §3, §4, §8, §9, §10
The next series has as its system DA-1 mouse tumor (IL-3). Put plainly: Cell proliferation test, DA-1. It counts as cell-based. The following applies: 72 h, read-out: ED50 (concentration at which a 50% inhibition occurs). As to the method: as §1, §2, §3, §4, §8, §9, §10
Another series has as its system P 388 D1 mouse Mo tumor. The experiment in a line: Cell proliferation test, P 388 D1. It counts as cell-based. To be noted: P388D1, 72 h, read-out: ED50 (concentration at which a 50% inhibition occurs). As to the method:
as §1, §2, §3, §4, §8, §9, §10

The test system of series [9] is HT-2 mouse T cell line (IL-2). The experiment in a line: Cell proliferation test, HT-2. It counts as cell-based. To be noted: 72 h, read-out: ED50 (concentration at which a 50% inhibition occurs). As to the method:
as §1, §2, §3, §4, §8, §9, §10

Series [10] can be described thus: Acute toxicity on oral administration, rat. To be noted: in vivo, SD rat, 3 weeks, Litchfield and Wilcoxon. The procedure: (§11) Acute toxicity on oral administration
(§12) Compound 1 was administered orally to the mice or rats to determine the acute toxicity.
(§13) The LD50 values were determined according to Litchfield and Wilcoxon.
(§14) The weight of the NMRI mice (NMRI : Naval Medical Research Institute) is 20 to 25 g and that of the SD rats (SD: Sprague-Dawley) is 120 to 165 g. The mice were fasted for about 18 hours before the test. They are fed normally again 5 hours after administration of the substances tested. After 3 weeks, the animals were sacrificed by means of chloroform and dissected. 6 animals are used per dose.

Series [11] relates to PB-3C mouse mast cell line (IL-3). The experiment in a line: Cell proliferation test, PB-3C. Type of series: cell-based. The following applies: 72 h, read-out: ED50 (concentration at which a 50% inhibition occurs). As to the method:
as §1, §2, §3, §4, §8, §9, §10

Series [12] can be described thus: Acute toxicity on oral administration, mouse. To be noted: in vivo, NMRI mouse, 3 weeks, Litchfield and Wilcoxon. As to the method:
as §11, §12, §13, §14

The subject of another series is 7D4 rat hybridoma. Put plainly: Cell proliferation test, 7D4. It counts as cell-based. To be noted: 72 h, read-out: ED50 (concentration at which a 50% inhibition occurs). The procedure: as §1, §2, §3, §4, §8, §9, §10
For series [13], the system named is K III 5 mouse T cell line (Th, IL-2). The experiment in a line: Cell proliferation test, K III 5. Type of series: cell-based. To be noted: 72 h, read-out: ED50 (concentration at which a 50% inhibition occurs). As to the method:
as §1, §2, §3, §4, §8, §9, §10

Series [14] deals with Bone marrow mouse (M-CSF, GM CSF). Put plainly: Cell proliferation test, bone marrow. Type of series: cell-based. To be noted: 72 h, read-out: ED50 (concentration at which a 50% inhibition occurs). The procedure: as §1, §2, §3, §4, §8, §9, §10
Series [15] deals with TRK 5 mouse B cell hybridoma. The experiment in a line: Cell proliferation test, TRK 5. It counts as cell-based. The following applies: 72 h, read-out: ED50 (concentration at which a 50% inhibition occurs). The procedure: as §1, §2, §3, §4, §8, §9, §10
The subject of a further series is Spleen T (con A and PWM). The experiment in a line: Mitogen-induced lymphocyte proliferation, Spleen T. It counts as cell-based. To be noted: Mus musculus, T-cell, 64 h, 48 h + 16 h with tritium thymidine, read-out: ED50 (concentration at which a 50% inhibition occurs). The procedure:
as §1, §2, §3, §4, §5, §6, §7

The subject of series [16] is HFF human foreskin fibroblast. The experiment in a line: Cell proliferation test, HFF. Type of series: cell-based. The following applies: 72 h, read-out: ED50 (concentration at which a 50% inhibition occurs). As to the method:
as §1, §2, §3, §4, §8, §9, §10

The subject of series [17] is CTL-J-K mouse T cell line (Tc, IL-2). Put plainly: Cell proliferation test, CTL-J-K. Type of series: cell-based. To be noted: 72 h, read-out: ED50 (concentration at which a 50% inhibition occurs). As to the method:
as §1, §2, §3, §4, §8, §9, §10

In series [18] the test system is HL-60 human promyelomonocytic leukemia. The experiment in a line: Cell proliferation test, HL-60. Type of series: cell-based. The following applies: 72 h, read-out: ED50 (concentration at which a 50% inhibition occurs). As to the method:
as §1, §2, §3, §4, §8, §9, §10

Series [19] can be described thus: Acute toxicity after intraperitoneal administration, mouse. The following applies: in vivo, ip, NMRI mouse, 3 weeks, Litchfield and Wilcoxon. As to the method: Acute toxicity after intraperitoneal administration
The acute toxicity after intraperitoneal administration of the test substances was carried out using NMRI mice (20 to 25 g) and SD rats (120 to 195 g). The test substance was suspended in a 1% strength sodium carboxymethyl cellulose solution. The various doses of the test substance were administered to the mice in a volume of 10 ml/kg of body weight and to the rats in a volume of 5 ml/kg of body weight. 10 animals were used per dose. After 3 weeks, the acute toxicity was determined according to the method of Litchfield and Wilcoxon.

The structures appear in SMILES notation.

For the compound `Cc1oncc1C(=O)Nc1ccc(C(F)(F)F)cc1` [Compound 1, 5-methylisoxazole-4-carboxylic acid (4-trifluoromethyl)anilide], the IC50 is 10 µM in the series on Spleen B (LPS); 1 to 3 µM in series [1]; at most 1 µM in series [2]; 10 µM in series [3]; 15 µM in series [4]; 5 µM in series [5]. In addition, the IC50 in series [6] is 15 µM; in series [7] it was 25 µM; in [8] it was 40 to 50 µM; in the series with DA-1 mouse tumor (IL-3), 5 µM; with P 388 D1 mouse Mo tumor, 10 µM; in series [9], 40 to 50 µM. The IC50 was 20 µM in [11]; at most 1 µM in the series on 7D4 rat hybridoma; 1 to 3 µM in series [13]; 5 µM in series [14]; 5 µM in series [15]; 10 µM in the series with Spleen T (con A and PWM). Besides, the IC50 was 40 µM in series [16], 40 to 50 µM in series [17] and 25 µM in series [18]. Further, the LD50 at 504 h came to 235 mg/kg in series [10] and 445 mg/kg in series [12].
Take `C/C(O)=C(\C#N)C(=O)Nc1ccc(C(F)(F)F)cc1` [Compound 2, N-(4-trifluoromethylphenyl)-2-cyano-3-hydroxycrotonamide]: the results for the LD50 at 504 h in series [10] and in series [19] were 160 mg/kg and 100 to 200 mg/kg, respectively.

For orientation: LD50 means the dose at which mortality reaches 50%. High values mean lower toxicity, low ones greater toxicity.

The values above are taken from patent publication US5532259A, “Isoxazole-4-carboxamides and hydroxyalkylidenecyanoacetamides, pharmaceuticals containing these compounds and their use” (Hoechst Aktiengesellschaft, priority 1990, dated 1996).
